The text below walks through data of US9303015B2, “Heteroaryl linked quinolinyl modulators of RORγt” (Janssen Pharmaceutica NV, priority 2012, dated 2016).

Where a name gives a salt, the structure may show the parent alone.

human RORγt LBD, sequence (P51449 258-518): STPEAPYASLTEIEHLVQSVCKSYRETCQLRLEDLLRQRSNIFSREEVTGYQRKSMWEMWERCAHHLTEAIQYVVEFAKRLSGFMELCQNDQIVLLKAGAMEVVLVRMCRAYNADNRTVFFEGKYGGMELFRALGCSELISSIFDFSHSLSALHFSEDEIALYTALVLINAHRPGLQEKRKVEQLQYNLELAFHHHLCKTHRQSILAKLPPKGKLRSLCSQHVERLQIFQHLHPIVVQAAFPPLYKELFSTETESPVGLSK

One experiment concerns the target human RORγt LBD (Homo sapiens (Human), UniProt P51449). In words: RORγt reporter assay (GAL4-RORγt LBD luciferase, HEK293T cells). It counts as cell-based. Conditions: 6 μM, HEK293T cells. An excerpt:
A reporter assay was used to test functional activity of RORγt modulatory compounds on transcriptional activation driven by the RORγt LBD. Cells used in the assay were co-transfected with two constructs. The first construct, pBIND-RORγt LBD, contained the wild type human RORγt LBD fused to the DNA binding domain of the GAL4 protein. The second construct, pGL4.31 (Promega Cat no. C935A), contained multiple GAL4 responsive DNA elements upstream of firefly luciferase. […] The mutant construct was called pBIND-RORγt-AF2. […] The pBIND vector contains the GAL4 DNA Binding Domain (GAL4 DBD) and the renilla luciferase gene under control of the SV40 promoter. Renilla luciferase expression serves as a control for transfection efficiency and cell viability.
The reporter assay was performed by transiently transfecting HEK293T cells with 5 μg of pBIND-RORγt LBD or pBIND-RORγt LBD-AF2 and 5 μg pGL4.31 (Promega Cat no. C935A) using Fugene 6 (Invitrogen Cat no. E2691) at a 1:6 ratio of DNA: Fugene 6 in a T-75 flask in which cells were at least 80% confluent. Twenty four hours after bulk transfection, cells were plated into 96-well plates at 50,000 cells/well in phenol-red free DMEM containing 5% Lipid Reduced FCS and Pen/Strep. Six hours after plating, cells were treated with compounds for 24 hours. Media was removed and cells were lysed with 50 μL 1x Glo Lysis Buffer (Promega). Dual Glo Luciferase Reagent (50 μL/well) was then added and firefly luciferase luminescence was read on an Envision after a ten minute incubation. Finally, Stop and Glo reagent (50 μL/well) was added and renilla luciferase luminescence was read on an Envision after a ten minute incubation. To calculate the effect of compounds on RORγt activity, the ratio of firefly to renilla luciferase was determined and plotted against compound concentration. Agonist compounds increase RORγt-driven luciferase expression, and antagonist or inverse agonist compounds decrease luciferase expression.
On the technique in general: A reporter such as luciferase makes a cellular process visible.
Regarding `CCN(CC)c1nc2ccc(C(O)(c3ccc(Cl)cc3)c3cncn3C)cc2c(Cl)c1Oc1ccccc1` (single isomer, unassigned) [Example 3b, (4-Chloro-2-(diethylamino)-3-phenoxyquinolin-6-yl)(4-chlorophenyl)(1-methyl-1H-imidazol-5-yl)methanol], the “RORγt reporter Assay, % inhibition @ 6 μM” value is on record as 77%.
Same read-out and setting: for `CCOc1nc2ccc(C(O)(c3ccc(C(F)(F)F)nc3)c3cncn3C)cc2c(Cl)c1Oc1ccc(F)cc1` (single isomer, unassigned) [Example 14b, (4-Chloro-2-ethoxy-3-(4-fluorophenoxy)quinolin-6-yl)(1-methyl-1H-imidazol-5-yl)(6-(trifluoromethyl)pyridin-3-yl)methanol] the value was 69%.
The same measure, in the same setting: for `CCOc1nc2ccc(C(O)(c3ccc(C(F)(F)F)nc3)c3cncn3C)cc2c(Cl)c1Oc1ccc(F)cc1` (single isomer, unassigned) [Example 14c, (4-Chloro-2-ethoxy-3-(4-fluorophenoxy)quinolin-6-yl)(1-methyl-1H-imidazol-5-yl)(6-(trifluoromethyl)pyridin-3-yl)methanol] the value was 18%; for `COc1nc2ccc(C(O)(c3ccc(Cl)cc3)c3cncn3C)cc2c(Cl)c1Oc1ccccc1` (single isomer, unassigned) [Example 15c, (4-Chloro-2-methoxy-3-phenoxyquinolin-6-yl)(4-chlorophenyl)(1-methyl-1H-imidazol-5-yl)methanol], 82%; for `CCOc1nc2ccc(C(O)(c3ccc(C(F)(F)F)nc3)c3cncn3C)cc2c(C(F)(F)F)c1Oc1ccc(Cl)cc1` (single isomer, unassigned) [Example 25c, (3-(4-Chlorophenoxy)-2-ethoxy-4-(trifluoromethyl)quinolin-6-yl)(1-methyl-1H-imidazol-5-yl)(6-(trifluoromethyl)pyridin-3-yl)methanol], 67%.

The experiment is the same for the next values; noted with them: HEK-293T, read-out: RORγt reporter Assay, % inhibition @ 6 μM, 6 μM, HEK293T cells.
As for `COc1nc2ccc(C(O)(c3ccc(Cl)cc3)c3cncn3C)cc2c(Cl)c1Oc1ccccc1` (single isomer, unassigned) [Example 15b, (4-Chloro-2-methoxy-3-phenoxyquinolin-6-yl)(4-chlorophenyl)(1-methyl-1H-imidazol-5-yl)methanol], the inhibition at 6 µM was 86%.
As for `COc1ccc(C(O)(c2ccc3nc(Cl)c(Oc4ccccc4)c(Cl)c3c2)c2cncn2C)cn1` (stereo not drawn) [Example 4, (2,4-Dichloro-3-phenoxyquinolin-6-yl)(6-methoxypyridin-3-yl)(1-methyl-1H-imidazol-5-yl)methanol], the inhibition at 6 µM came out at 92%.
On the same count and under the same terms, for `CCN(CC)c1nc2ccc(C(O)(c3ccc(C(F)(F)F)nc3)c3cncn3C)cc2c(Cl)c1Oc1ccc(F)cc1` (stereo not drawn) [Example 9a] the value was 97%; for `CCOc1nc2ccc(C(O)(c3ccc(OC)nc3)c3cncn3C)cc2c(Cl)c1Oc1ccccc1` (stereo not drawn) [Example 10a, (4-Chloro-2-ethoxy-3-phenoxyquinolin-6-yl)(6-methoxypyridin-3-yl)(1-methyl-1H-imidazol-5-yl)methanol.TFA], 95%.
On the same count and under the same terms, for `CCOc1nc2ccc(C(O)(c3ccc(C(F)(F)F)nc3)c3cncn3C)cc2c(Cl)c1Oc1ccc(F)cc1` (stereo not drawn) [Example 14a, (4-Chloro-2-ethoxy-3-(4-fluorophenoxy)quinolin-6-yl)(1-methyl-1H-imidazol-5-yl)(6-(trifluoromethyl)pyridin-3-yl)methanol] the value was 55%; for `COc1nc2ccc(C(O)(c3ccc(Cl)cc3)c3cncn3C)cc2c(Cl)c1Oc1ccccc1` (stereo not drawn) [Example 15a, (4-Chloro-2-methoxy-3-phenoxyquinolin-6-yl)(4-chlorophenyl)(1-methyl-1H-imidazol-5-yl)methanol], 83%; for `COc1c(Oc2ccccc2)c(Cl)nc2ccc(C(O)(c3ccc(Cl)cc3)c3cncn3C)cc12` (stereo not drawn) [Example 18, (2-Chloro-4-methoxy-3-phenoxyquinolin-6-yl)(4-chlorophenyl)(1-methyl-1H-imidazol-5-yl)methanol], 88%.

As a reminder, the inhibition is how much of the control response was suppressed.
